Data published in ChEMBL document CHEMBL1136678, “Novel indole-based inhibitors of IMPDH: introduction of hydrogen bond acceptors at indole C-3” (Bioorg Med Chem Lett, 2003).

What was measured:
[1] = target: Inosine-5'-monophosphate dehydrogenase 2 (Homo sapiens, UniProt P12268); assay: Inhibition of 5'-inosine monophosphate dehydrogenase type II (IMPDH II)
[2] = system: CCRF-CEM; assay: Inhibition of CEM T-cell proliferation; assay type: functional, cell-based; conditions: Homo sapiens
[3] = target: Inosine-5'-monophosphate dehydrogenase 1 (Homo sapiens, UniProt P20839); assay: Inhibition of 5'-inosine monophosphate dehydrogenase type I (IMPDH I)
Chain of Inosine-5'-monophosphate dehydrogenase 1 (P20839 whole entry): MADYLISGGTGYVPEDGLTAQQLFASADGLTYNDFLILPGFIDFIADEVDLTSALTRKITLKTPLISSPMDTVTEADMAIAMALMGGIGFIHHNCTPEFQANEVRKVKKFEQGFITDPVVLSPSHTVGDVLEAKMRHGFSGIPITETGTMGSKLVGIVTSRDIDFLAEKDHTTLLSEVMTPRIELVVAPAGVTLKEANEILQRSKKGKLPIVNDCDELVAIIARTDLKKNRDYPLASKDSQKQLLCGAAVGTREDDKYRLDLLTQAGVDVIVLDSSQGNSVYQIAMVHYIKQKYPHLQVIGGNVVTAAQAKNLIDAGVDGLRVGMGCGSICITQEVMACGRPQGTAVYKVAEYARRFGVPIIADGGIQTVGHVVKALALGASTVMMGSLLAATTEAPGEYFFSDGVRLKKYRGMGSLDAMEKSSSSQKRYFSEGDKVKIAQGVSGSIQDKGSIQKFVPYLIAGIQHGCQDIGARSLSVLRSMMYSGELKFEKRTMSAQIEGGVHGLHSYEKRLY

Compound | IC50 [1] [nM] | IC50 [2] [nM] | IC50 [3] [nM]
COc1cc2[nH]c(-c3csc4ccccc34)cc2cc1-c1cnco1 | 500 |  | 
COc1cc2[nH]c(Cc3ccccc3)c(C=O)c2cc1-c1cnco1 | 360 |  | 
COc1cc2[nH]c3c(c2cc1-c1cnco1)CC(=O)CC3 | 290 |  | 
COc1cc2[nH]c(-c3ccccc3)c(C=O)c2cc1-c1cnco1 | 230 |  | 
COc1cc2[nH]c3c(c2cc1-c1cnco1)CCCC(=O)C3 | 150 |  | 
COc1cc2[nH]c(-c3csc4ccccc34)c(C#N)c2cc1-c1cnco1 | 64 |  | 
COc1cc2[nH]c(Cc3ccccc3)cc2cc1-c1cnco1 | 600 |  | 
COc1cc2[nH]c(Cc3ccccc3)c(C#N)c2cc1-c1cnco1 | 220 |  | 
COc1cc2[nH]c(-c3ccccc3)c(C#N)c2cc1-c1cnco1 | 130 |  | 
CCOC(=O)c1c(-c2ccccc2)[nH]c2cc(OC)c(-c3cnco3)cc12 | > 1000 |  | 
COc1cc2[nH]c(-c3ccccc3)cc2cc1-c1cnco1 | 500 | > 10000 | 
COc1cc2[nH]c(-c3csc4ccccc34)c(C=O)c2cc1-c1cnco1 | 30 | 550 | 160
